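Method: 48-hour compound exposure of cells in 96-well plates, five concentrations, linear interpolation of endpoints. Here, GI50 denotes the concentration required for 50% inhibition of growth.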 Calls of active or inactive are those of the source. Cut-off read from the data, not from the text of the source: active = GI50 up to about 1.1 µM and inactive = higher.
How the values were obtained:
Experiment in all cases: inhibition of tumour cell growth, NCI panel, 48 h
KM12 = test system: KM12
HCT-15 = test system: HCT-15
PC-3 = test system: PC-3
HOP-62 = test system: HOP-62
SF-295 = test system: SF-295
MDA-N = test system: MDA-N
SNB-75 = test system: SNB-75
RXF 393 = test system: RXF 393
MDA-MB-231 = test system: MDA-MB-231
SF-268 = test system: SF-268
HT-29 = test system: HT-29
ACHN = test system: ACHN
HOP-92 = test system: HOP-92
Malme-3M = test system: Malme-3M
T47D = test system: T47D
BT-549 = test system: BT-549
COLO 205 = test system: COLO 205
HCC 2998 = test system: HCC 2998
OVCAR-4 = test system: OVCAR-4
SW-620 = test system: SW-620
CCRF-CEM = test system: CCRF-CEM
NCI-H460 = test system: NCI-H460
CAKI-1 = test system: CAKI-1
NCI-H226 = test system: NCI-H226
MCF7 = test system: MCF7
MDA-MB-435 = test system: MDA-MB-435
SK-MEL-5 = test system: SK-MEL-5
A549 = test system: A549
OVCAR-8 = test system: OVCAR-8
Hs-578T = test system: Hs-578T
OVCAR-5 = test system: OVCAR-5
NCI-H23 = test system: NCI-H23
786-0 = test system: 786-0
HL-60 = test system: HL-60
A498 = test system: A498
HCT-116 = test system: HCT-116
K562 = test system: K562
TK-10 = test system: TK-10
U-251 = test system: U-251
UO-31 = test system: UO-31
NCI-H522 = test system: NCI-H522
NCI/ADR-RES = test system: NCI/ADR-RES
EKVX = test system: EKVX
DU-145 = test system: DU-145
LOX IMVI = test system: LOX IMVI
SK-MEL-28 = test system: SK-MEL-28
SN12C = test system: SN12C
UACC-62 = test system: UACC-62
SNB-19 = test system: SNB-19
OVCAR-3 = test system: OVCAR-3
SK-MEL-2 = test system: SK-MEL-2
UACC-257 = test system: UACC-257
M14 = test system: M14
SK-OV-3 = test system: SK-OV-3
MOLT-4 = test system: MOLT-4
SF-539 = test system: SF-539
IGROV-1 = test system: IGROV-1

COc1cc(OC)c(OC)cc1/C=C/c1ccccn1
GI50 (KM12): > 10 µM (inactive)
GI50 (HCT-15): > 10 µM
GI50 (PC-3): > 10 µM (inactive)
GI50 (HOP-62): > 10 µM (inactive)
GI50 (SF-295): > 10 µM (inactive)
GI50 (MDA-N): > 10 µM (inactive)
GI50 (SNB-75): > 10 µM (inactive)
GI50 (RXF 393): > 10 µM (inactive)
GI50 (MDA-MB-231): > 10 µM (inactive)
GI50 (SF-268): > 10 µM (inactive)
GI50 (HT-29): > 10 µM (inactive)
GI50 (ACHN): > 10 µM (inactive)
GI50 (HOP-92): > 10 µM (inactive)
GI50 (Malme-3M): > 10 µM (inactive)
GI50 (T47D): > 10 µM (inactive)
GI50 (BT-549): > 10 µM (inactive)
GI50 (COLO 205): > 10 µM (inactive)
GI50 (HCC 2998): > 10 µM (inactive)
GI50 (OVCAR-4): > 10 µM (inactive)
GI50 (SW-620): > 10 µM (inactive)
GI50 (CCRF-CEM): > 10 µM (inactive)
GI50 (NCI-H460): > 10 µM (inactive)
GI50 (CAKI-1): > 10 µM (inactive)
GI50 (NCI-H226): > 10 µM (inactive)
GI50 (MCF7): > 10 µM (inactive)
GI50 (MDA-MB-435): > 10 µM (inactive)
GI50 (SK-MEL-5): > 10 µM (inactive)
GI50 (A549): > 10 µM (inactive)
GI50 (OVCAR-8): > 10 µM (inactive)
GI50 (Hs-578T): > 10 µM (inactive)
GI50 (OVCAR-5): > 10 µM (inactive)
GI50 (NCI-H23): > 10 µM (inactive)
GI50 (786-0): > 10 µM (inactive)
GI50 (HL-60): > 10 µM (inactive)
GI50 (A498): > 10 µM (inactive)
GI50 (HCT-116): > 10 µM (inactive)
GI50 (K562): > 10 µM (inactive)
GI50 (TK-10): > 10 µM (inactive)
GI50 (U-251): > 10 µM (inactive)
GI50 (UO-31): > 10 µM (inactive)
GI50 (NCI-H522): > 10 µM (inactive)
GI50 (NCI/ADR-RES): > 10 µM (inactive)
GI50 (EKVX): > 10 µM (inactive)
GI50 (DU-145): > 10 µM (inactive)
GI50 (LOX IMVI): > 10 µM (inactive)
GI50 (SK-MEL-28): > 10 µM (inactive)
GI50 (SN12C): > 10 µM (inactive)
GI50 (UACC-62): > 10 µM (inactive)
GI50 (SNB-19): > 10 µM (inactive)
GI50 (OVCAR-3): > 10 µM (inactive)
GI50 (SK-MEL-2): > 10 µM (inactive)
GI50 (UACC-257): > 10 µM (inactive)
GI50 (M14): > 10 µM (inactive)
GI50 (SK-OV-3): > 10 µM (inactive)
GI50 (MOLT-4): > 10 µM (inactive)
GI50 (SF-539): > 10 µM (inactive)
GI50 (IGROV-1): > 10 µM (inactive)
